In ChEMBL document CHEMBL5325401, “Computer-aided identification, synthesis, and biological evaluation of DNA polymerase η inhibitors for the treatment of cancer” (Eur J Med Chem, 2023):
In brackets after ≈: the same amount, converted by molar mass. Activity calls are given as the source filed them. No cut-off for these calls is given here.

Key:
[1] = Antiproliferative activity against HEK293 cells incubated for 72 hrs by MTT assay; format: toxicity, cell-based; conditions: human, read-out: LD50
OVCAR-3 [2] = assay: Antiproliferative activity against human OVCAR-3 cells assessed as cisplatin LD50 at 10 uM incubated for 48 hrs in presence of cisplatin by MTT assay; format: functional; conditions: read-out: LD50 (the source's name)
A549 [3] = assay: Antagonistic antiproliferative activity against human A549 cells assessed as combination index at 20 uM incubated for 48 hrs in presence of 12.5 uM cisplatin by MTT assay; format: functional
[4] = Metabolic stability in mouse plasma assessed as half life at 2 uM incubated upto 120 mins by UPLC/MS analysis; format: ADME, cell-free
OVCAR-3 [5] = assay: Antagonistic antiproliferative activity against human OVCAR-3 cells assessed as combination index at 10 uM incubated for 48 hrs in presence of 12.5 uM cisplatin by MTT assay; format: functional
HEK293 = assay: (§1) Antiproliferative activity against HEK293 cells incubated for 48 hrs by MTT assay; format: toxicity, cell-based; conditions: human, hek293, 48 h
A549 [6] = assay: Antiproliferative activity against human A549 cells assessed as cisplatin LD50 at 20 uM incubated for 48 hrs in presence of cisplatin by MTT assay; format: functional; conditions: read-out: LD50 (the source's name)
A-375 [7] = assay: Antiproliferative activity against human A-375 cells assessed as cisplatin LD50 at 30 uM incubated for 48 hrs in presence of cisplatin by MTT assay; format: functional; conditions: read-out: LD50 (the source's name)
A-375 [8] = assay: Synergistic antiproliferative activity against human A-375 cells assessed as combination index at 50 uM incubated for 48 hrs in presence of 12.5 uM cisplatin by MTT assay; format: functional
A549 [9] = assay: Antiproliferative activity against human A549 cells assessed as cisplatin LD50 at 30 uM incubated for 48 hrs in presence of cisplatin by MTT assay; format: functional; conditions: read-out: LD50 (the source's name)
A-375 [10] = assay: Antiproliferative activity against human A-375 cells assessed as cisplatin LD50 at 20 uM incubated for 48 hrs in presence of cisplatin by MTT assay; format: functional; conditions: read-out: LD50 (the source's name)
DNA polymerase eta = biological target: T1, DNA polymerase eta (Homo sapiens, UniProt Q9Y253); assay: Inhibition of C-terminal 6xHis-tagged human DNA polymerase eta (1 to 511 residues) expressed in Escherichia coli BL21 DE3 using 5'-IRD700-GCAGGTCGACTCCAAAG-3' primer/ 5'-TCGGTACCGGGTTAGCCTTTGGAGTCGACCTGC-3' template as DNA substrate incubated for 60 mins in presence of Mg2+ by bromophenol blue staining based assay
T1 sequence (Q9Y253 whole entry): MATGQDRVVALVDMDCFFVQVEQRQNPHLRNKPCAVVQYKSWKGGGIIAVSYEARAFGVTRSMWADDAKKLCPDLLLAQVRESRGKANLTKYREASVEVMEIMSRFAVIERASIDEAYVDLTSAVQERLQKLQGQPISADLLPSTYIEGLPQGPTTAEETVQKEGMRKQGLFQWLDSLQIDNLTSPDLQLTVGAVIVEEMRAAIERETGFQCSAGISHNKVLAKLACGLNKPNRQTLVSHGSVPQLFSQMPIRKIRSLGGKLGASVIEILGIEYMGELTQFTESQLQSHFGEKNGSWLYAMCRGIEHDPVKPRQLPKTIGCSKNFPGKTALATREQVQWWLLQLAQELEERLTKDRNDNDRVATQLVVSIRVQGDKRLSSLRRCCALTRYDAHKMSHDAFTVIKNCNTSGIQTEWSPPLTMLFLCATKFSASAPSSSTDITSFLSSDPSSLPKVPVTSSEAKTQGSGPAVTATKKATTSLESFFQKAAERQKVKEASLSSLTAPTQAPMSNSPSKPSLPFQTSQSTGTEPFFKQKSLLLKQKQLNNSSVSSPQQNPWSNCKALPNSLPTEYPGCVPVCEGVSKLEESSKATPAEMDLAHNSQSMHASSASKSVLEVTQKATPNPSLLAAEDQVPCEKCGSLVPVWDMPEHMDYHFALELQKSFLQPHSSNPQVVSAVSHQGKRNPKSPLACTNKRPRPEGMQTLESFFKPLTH

A-375 [11] = assay: Antiproliferative activity against human A-375 cells incubated for 48 hrs by MTT assay; format: functional; conditions: read-out: LD50 (the source's name)
A549 [12] = assay: Additive antiproliferative activity against human A549 cells assessed as combination index at 30 uM incubated for 48 hrs in presence of 12.5 uM cisplatin by MTT assay; format: functional
A-375 [13] = assay: Antiproliferative activity against human A-375 cells assessed as cisplatin LD50 at 10 uM incubated for 48 hrs in presence of cisplatin by MTT assay; format: functional; conditions: read-out: LD50 (the source's name)
OVCAR-3 [14] = assay: Antiproliferative activity against human OVCAR-3 cells assessed as cisplatin LD50 at 5 uM incubated for 48 hrs in presence of cisplatin by MTT assay; format: functional; conditions: read-out: LD50 (the source's name)
[15] = Kinetic solubility of compound in neutral buffer at pH 7.4 at 250 uM measured after 24 hrs by UPLC/MS analysis; format: physicochemical; conditions: read-out: Kinetic_solubility
OVCAR-3 [16] = assay: Antiproliferative activity against human OVCAR-3 cells incubated for 48 hrs by MTT assay; format: functional; conditions: read-out: LD50 (the source's name)
A549 [17] = assay: Additive antiproliferative activity against human A549 cells assessed as combination index at 30 uM incubated for 48 hrs in presence of 6 uM cisplatin by MTT assay; format: functional
A549 [18] = assay: Antiproliferative activity against human A549 cells incubated for 48 hrs by MTT assay; format: functional; conditions: read-out: LD50 (the source's name)
[19] = Metabolic stability in mouse liver microsome assessed as half life at 4.6 uM incubated upto 60 mins by LC/MS-MS analysis; format: ADME; conditions: liver microsomes
OVCAR-3 [20] = assay: Additive antiproliferative activity against human OVCAR-3 cells assessed as combination index at 10 uM incubated for 48 hrs in presence of 6 uM cisplatin by MTT assay; format: functional
A-375 [21] = assay: Additive antiproliferative activity against human A-375 cells assessed as combination index at 10 uM incubated for 48 hrs in presence of 6 uM cisplatin by MTT assay; format: functional
A549 [22] = assay: Additive antiproliferative activity against human A549 cells assessed as combination index at 20 uM incubated for 48 hrs in presence of 6 uM cisplatin by MTT assay; format: functional
[23] = Upregulation of phosphorylated gamma-H2AX level in human OVCAR-3 cells assessed as fold increase in activity at 20 uM incubated for 24 hrs by in presence of cisplatin by immunofluorescence based microscopy relative to cisplatin; format: functional
[24] = Upregulation of phosphorylated gamma-H2AX level in human A375 cells assessed as fold increase in activity at 20 uM incubated for 24 hrs by in presence of cisplatin by immunofluorescence based microscopy relative to cisplatin; format: functional, A-375
OVCAR-3 [25] = assay: Synergistic antiproliferative activity against human OVCAR-3 cells assessed as combination index at 75 uM incubated for 48 hrs in presence of 12.5 uM cisplatin by MTT assay; format: functional
A-375 [26] = assay: Synergistic antiproliferative activity against human A-375 cells assessed as combination index at 35 uM incubated for 48 hrs in presence of 12.5 uM cisplatin by MTT assay; format: functional
A-375 [27] = assay: Upregulation of phosphorylated gamma-H2AX level in human A375 cells incubated for 48 hrs by Western blot analysis; format: functional, cell-based; conditions: dose 30.0 µM
A549 [28] = assay: Antiproliferative activity against human A549 cells assessed as cisplatin LD50 at 100 uM incubated for 48 hrs in presence of cisplatin by MTT assay; format: functional; conditions: read-out: LD50 (the source's name)
OVCAR-3 [29] = assay: Upregulation of phosphorylated gamma-H2AX level in human OVCAR-3 cells incubated for 48 hrs by Western blot analysis; format: functional, cell-based; conditions: dose 30.0 µM
[30] = as §1; format: toxicity, cell-based; conditions: human, HEK293 cells, read-out: LD50
A-375 [31] = assay: Upregulation of phosphorylated gamma-H2AX level in human A375 cells at 30 uM incubated for 48 hrs by in presence of cisplatin by Western blot analysis; format: functional, cell-based
A549 [32] = assay: Synergistic antiproliferative activity against human A549 cells assessed as combination index at 50 uM incubated for 48 hrs in presence of 6 uM cisplatin by MTT assay; format: functional
A549 [33] = assay: Antiproliferative activity against human A549 cells assessed as cisplatin LD50 at 50 uM incubated for 48 hrs in presence of cisplatin by MTT assay; format: functional; conditions: read-out: LD50 (the source's name)
OVCAR-3 [34] = assay: Antiproliferative activity against human OVCAR-3 cells assessed as cisplatin LD50 at 50 uM incubated for 48 hrs in presence of cisplatin by MTT assay; format: functional; conditions: read-out: LD50 (the source's name)
A549 [35] = assay: Synergistic antiproliferative activity against human A549 cells assessed as combination index at 100 uM incubated for 48 hrs in presence of 12.5 uM cisplatin by MTT assay; format: functional
A549 [36] = assay: Synergistic antiproliferative activity against human A549 cells assessed as combination index at 50 uM incubated for 48 hrs in presence of 12.5 uM cisplatin by MTT assay; format: functional
A-375 [37] = assay: Synergistic antiproliferative activity against human A-375 cells assessed as combination index at 50 uM incubated for 48 hrs in presence of 6 uM cisplatin by MTT assay; format: functional
A-375 [38] = assay: Antiproliferative activity against human A-375 cells assessed as cisplatin LD50 at 50 uM incubated for 48 hrs in presence of cisplatin by MTT assay; format: functional; conditions: read-out: LD50 (the source's name)
OVCAR-3 [39] = assay: Synergistic antiproliferative activity against human OVCAR-3 cells assessed as combination index at 50 uM incubated for 48 hrs in presence of 6 uM cisplatin by MTT assay; format: functional
OVCAR-3 [40] = assay: Antiproliferative activity against human OVCAR-3 cells assessed as cisplatin LD50 at 75 uM incubated for 48 hrs in presence of cisplatin by MTT assay; format: functional; conditions: read-out: LD50 (the source's name)
OVCAR-3 [41] = assay: Synergistic antiproliferative activity against human OVCAR-3 cells assessed as combination index at 75 uM incubated for 48 hrs in presence of 6 uM cisplatin by MTT assay; format: functional
A-375 [42] = assay: Antiproliferative activity against human A-375 cells assessed as cisplatin LD50 at 35 uM incubated for 48 hrs in presence of cisplatin by MTT assay; format: functional; conditions: read-out: LD50 (the source's name)
A549 [43] = assay: Synergistic antiproliferative activity against human A549 cells assessed as combination index at 100 uM incubated for 48 hrs in presence of 6 uM cisplatin by MTT assay; format: functional
OVCAR-3 [44] = assay: Synergistic antiproliferative activity against human OVCAR-3 cells assessed as combination index at 50 uM incubated for 48 hrs in presence of 12.5 uM cisplatin by MTT assay; format: functional
A-375 [45] = assay: Synergistic antiproliferative activity against human A-375 cells assessed as combination index at 35 uM incubated for 48 hrs in presence of 6 uM cisplatin by MTT assay; format: functional

## COc1c(-c2ccc(O)c(O)c2)oc2cc(O)cc(O)c2c1=O [3-O-METHYLQUERCETIN]
[1]
  CC50 at 72 h: 30.5 µM
OVCAR-3 [2]
  CC50: 5.8 µM
A549 [3]
  CI: 1.24
[4]
  half-life at 2 µM: > 120 min
OVCAR-3 [5]
  CI: 2.33
HEK293
  Activity: Non-Toxic
A549 [6]
  CC50: 11.9 µM
A-375 [7]
  CC50: 400 nM
A-375 [8]
  CI: 0.78
A549 [9]
  CC50: 7.4 µM
A-375 [10]
  CC50: 500 nM
DNA polymerase eta
  IC50: 10.8 µM
A-375 [11]
  CC50: 29 µM
A549 [12]
  CI: 0.94
A-375 [13]
  CC50: 2000 nM
OVCAR-3 [14]
  CC50: 4.8 µM
[15]
  solubility kinetic at 24 h, 250 µM: 229 µM (≈ 72.4 µg/mL)
OVCAR-3 [16]
  CC50: 5.2 µM
A549 [17]
  CI: 0.96
A549 [18]
  CC50: 60 µM
[19]
  half-life at 4.6 µM: > 60 min
OVCAR-3 [20]
  CI: 1.15
A-375 [21]
  CI: 0.96
A549 [22]
  CI: 1.03
[23]
  fold change (FC): >2
[24]
  fold change (FC): >2

## O=c1c(OCCCO)c(-c2ccc(O)c(O)c2)oc2cc(O)cc(O)c12
OVCAR-3 [25]
  CI: 0.72
A-375 [26]
  CI: 0.78
OVCAR-3 [2]
  CC50: 4.8 µM
A-375 [27]
  Activity: Dose-Dependent Effect
A549 [28]
  CC50: 9.4 µM
[4]
  half-life at 2 µM: 90 min
OVCAR-3 [29]
  Activity: Dose-Dependent Effect
[30]
  CC50 at 48 h: > 100 µM
A-375 [31]
  Activity: Active
A549 [32]
  CI: 0.78
A549 [33]
  CC50: 19.7 µM
OVCAR-3 [34]
  CC50: 2800 nM
A-375 [8]
  CI: 0.23
A549 [35]
  CI: 0.58
A549 [36]
  CI: 0.8
A-375 [37]
  CI: 0.27
DNA polymerase eta
  IC50: 14.7 µM
A-375 [38]
  CC50: 1000 nM
A-375 [11]
  CC50: > 100 µM
OVCAR-3 [39]
  CI: 0.52
OVCAR-3 [40]
  CC50: 270 nM
[15]
  solubility kinetic at 24 h, 250 µM: 231 µM (≈ 83.2 µg/mL)
OVCAR-3 [41]
  CI: 0.5
OVCAR-3 [16]
  CC50: > 100 µM
A-375 [42]
  CC50: 2600 nM
A549 [43]
  CI: 0.6
A549 [18]
  CC50: > 100 µM
[19]
  half-life at 4.6 µM: > 60 min
OVCAR-3 [44]
  CI: 0.78
A-375 [45]
  CI: 0.66
[23]
  fold change (FC): >2
[24]
  fold change (FC): >2
